Source: PMC7822874, “Chemoprotective antimalarials identified through quantitative high-throughput screening of Plasmodium blood and liver stage parasites” (Scientific Reports, 2021)
≈ marks a conversion by molar mass, not a printed value. Read-outs that look alike come from different tables or passages of the source.

What was measured:
[1] = system: P. falciparum Dd2 Cytb A122D; experiment: SYBR Green ABS proliferation assay, NCGC00473217 selected clone F12; type: cell-based, Plasmodium falciparum; conditions: Plasmodium falciparum
In short: (§1)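 Drug-selected P. falciparum Dd2 clones carrying Cytb mutations, obtained by limiting-dilution cloning, grown in RBCs at 37 °C under 5% CO2/5% O2/90% N2. Growth read by SYBR Green-I fluorescence at 72 h and normalized to controls.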

[2] = system: P. falciparum Dd2 cytochrome b mutant lines; experiment: Drug response of drug-selected cytochrome b mutant lines versus parental Dd2-B2 (panel); type: cell-based, Plasmodium falciparum; conditions: all cytochrome b mutant lines vs Dd2-B2
Protocol: As resistance selection studies implicated the parasite cytochrome bc1 complex in mediating reduced parasite susceptibility to both NCGC00473217 and NCGC00374598, we leveraged these drug-selected parasites to test for altered drug response to a panel of antimalarial compounds.
The P. falciparum parasite Dd2 line was cultured in vitro using standard conditions. […] Tissue culture flasks and assay plates were incubated at 37 °C under a gas mixture of 5% CO2, 5% O2 and 90% N2. […] Significant differences were assessed using two-sided Student’s t-tests. All HTS assays were stopped and read at 72 h. Percent response values represent relative growth as judged by SYBR Green-I fluorescence intensity values normalized to controls.

[3] = system: P. falciparum Dd2 Cytb G131S; experiment: SYBR Green ABS proliferation assay, NCGC00374598 selected clone C11; type: cell-based, Plasmodium falciparum; conditions: Plasmodium falciparum
In short: as §1

[4] = system: P. falciparum Dd2 (clone B2) asexual blood stage parasites; experiment: P. falciparum Dd2 asexual blood stage SYBR Green-I 72 h proliferation assay (qHTS); type: cell-based, Plasmodium falciparum; conditions: Plasmodium falciparum
[5] = system: P. falciparum Dd2 Cytb F123L; experiment: SYBR Green ABS proliferation assay, NCGC00473217 selected clone G08; type: cell-based, Plasmodium falciparum; conditions: Plasmodium falciparum
In short: as §1

[6] = system: P. falciparum Dd2 Cytb V259L; experiment: SYBR Green ABS proliferation assay, NCGC00473217 selected clone F06; type: cell-based, Plasmodium falciparum; conditions: Plasmodium falciparum
In short: as §1

[7] = Parallel artificial membrane permeability assay (PAMPA); type: in vitro ADME; conditions: for PAMPA pH7.4: pH 7.4
Protocol: (§2) Pharmacokinetic modeling experiments, parallel artificial membrane permeability assay (PAMPA), solubility, and rat liver microsome stability assessment were performed on all synthetic compounds, as previously described[73]–[75].

Aqueous solubility = type: physicochemical; conditions: aqueous media
Protocol: as §2

[8] = Rat liver microsomal stability (RLMS); conditions: rat liver microsomes; for half-life: rat
Protocol: as §2

[9] = DD2, NCGC00473217 selected clone, read-out: AC50 Log[M] ± SD, Cytb A122D (converted)
[10] = DD2, NCGC00374598 selected clone, read-out: AC50 Log[M] ± SD, Cytb G131S (converted)
[11] = DD2, 72 h, SYBR Green 72 h, WT Dd2-B2, read-out: AC50 Log[M] ± SD, Dd2-B2 (parental line) (converted)
[12] = DD2, NCGC00473217 selected clone, read-out: AC50 Log[M] ± SD, Cytb F123L (converted)
[13] = DD2, NCGC00473217 selected clone, read-out: AC50 Log[M] ± SD, Cytb V259L (converted)
[14] = DD2, NCGC00473217 selected clone F12, read-out: AC50 [μM], Cytb A122D (converted)
[15] = DD2, NCGC00374598 selected clone C11, read-out: AC50 [μM], Cytb G131S (converted)
[16] = DD2, 72 h, SYBR Green 72 h, approximate value in μM, read-out: AC50 [μM], Dd2-B2 (parental line) (converted)
[17] = DD2, NCGC00473217 selected clone G08, highest concentration 29 µM, read-out: AC50 [μM], Cytb F123L (converted)
[18] = DD2, NCGC00473217 selected clone F06, read-out: AC50 [μM], Cytb V259L (converted)

Compound | AC50 [1, 9] | AC50 [3, 10] | AC50 [4, 11] | AC50 [6, 13] | AC50 [1, 14] | PAMPA pH7.4 [7] | solubility (Aqueous solubility) | AC50 [3, 15] | AC50 [4, 16] | AC50 [5, 17] | AC50 [6, 18] | half-life [8] | also measured
CCN(CC)Cc1cc(Nc2ccnc3cc(Cl)ccc23)ccc1O [Amodiaquine, amodiaquine, reference compound] | 6.61e-08 M | 4.9e-08 M | 4.68e-08 M | 7.24e-08 M |  |  |  |  |  |  |  |  | AC50 ([1]; DD2, Suppl Table 6, read-out: AC50 (mM), Dd2 Cytb A122D): 6.68e-08 M; change in susceptibility across drug-selected lines [2]: no observed change in susceptibility; AC50 ([3]; DD2, Suppl Table 6, read-out: AC50 (mM), Dd2 Cytb G131S): 4.91e-08 M; AC50 ([4]; DD2, Suppl Table 6, read-out: AC50 (mM), WT (Dd2-B2)): 4.73e-08 M; AC50 [5, 12]: 5.5e-08 M; AC50 ([5]; DD2, Suppl Table 6, read-out: AC50 (mM), Dd2 Cytb F123L): 5.51e-08 M; AC50 ([6]; DD2, Suppl Table 6, read-out: AC50 (mM), Dd2 Cytb V259L): 7.21e-08 M
CC(C)CC1=NS(=O)(=O)c2cc(NC(=O)c3ccc(F)cc3)ccc2N1C [NCGC00651713] |  |  |  |  | > 2.9e-05 M | <1 1e-6 cm/s | < 1 µg/mL | > 2.9e-05 M | > 2.9e-05 M | > 2.9e-05 M | > 2.9e-05 M | > 30 min | 
CCCN1C(CC(C)C)=NS(=O)(=O)c2cc(NC(=O)c3sccc3C)ccc21 [NCGC00521035] | 2.82e-06 M | 1.66e-06 M | 1.58e-06 M | 6.76e-06 M | 2.83e-06 M | 1597 1e-6 cm/s | < 1 µg/mL | 1.65e-06 M | 1.59e-06 M | > 2.9e-05 M | 6.84e-06 M | 3.4 min | 
CCN(CC)CCCC(C)Nc1ccnc2cc(Cl)ccc12 (centres unmarked) [chloroquine] |  |  |  |  |  |  |  |  |  |  |  |  | change in susceptibility across drug-selected lines [2]: no observed change in susceptibility
CCCN1C(CC(C)C)=NS(=O)(=O)c2cc(NC(=O)c3ccc(F)s3)ccc21 [NCGC00523537] | 7.94e-07 M | 3.16e-07 M | 1.12e-07 M | 8.91e-07 M | 7.97e-07 M | 1480 1e-6 cm/s | < 1 µg/mL | 3.17e-07 M | 1.13e-07 M | > 2.9e-05 M | 8.94e-07 M | 4.4 min | PAMPA permeability [7]: high permeability; RLMS T1/2 [8]: poor stability
CCCN1C(CC(C)C)=NS(=O)(=O)c2cc(NC(=O)c3sccc3Cl)ccc21 [NCGC00531529] | 6.03e-07 M | 5.89e-07 M | 2.24e-06 M | 3.72e-06 M | 6.03e-07 M | 678 1e-6 cm/s | < 1 µg/mL | 5.86e-07 M | 2.25e-06 M | > 2.9e-05 M | 3.72e-06 M | 2.8 min | 
CCCN1C(CC(C)C)=NS(=O)(=O)c2cc(NC(=O)Nc3nccs3)ccc21 [NCGC00537523] | 9.33e-06 M | 2.69e-06 M | 2.14e-06 M | 5.25e-06 M | 9.29e-06 M | 113 1e-6 cm/s | 1.2 µg/mL (≈ 2.85 µM) | 2.67e-06 M | 2.16e-06 M | 9.56e-06 M | 5.23e-06 M | 7.8 min | AC50 [5, 12]: 9.55e-06 M
CC(C)CC1=NS(=O)(=O)c2cc(NC(=O)c3ccc(F)s3)ccc2N1C [NCGC00651708] |  |  | 1.66e-06 M |  | > 2.9e-05 M | 3.07 1e-6 cm/s | < 1 µg/mL | > 2.9e-05 M | 1.68e-06 M | > 2.9e-05 M | > 2.9e-05 M | > 30 min | RLMS T1/2 [8]: much better stability
CCCN1C(CC(C)C)=NS(=O)(=O)c2cc(NC(=O)c3sccc3F)ccc21 [NCGC00523542] | 1.32e-06 M | 1.78e-06 M | 1.58e-06 M | 5.37e-06 M | 1.31e-06 M | 770 1e-6 cm/s | < 1 µg/mL | 1.78e-06 M | 1.59e-06 M | > 2.9e-05 M | 5.43e-06 M | 4.6 min | 
CCCN1C(CC2CCCCC2)=NS(=O)(=O)c2cc(NC(=O)c3ccc(F)cc3)ccc21 [NCGC00532335] | 3.31e-06 M | 8.51e-07 M | 8.91e-07 M |  | 3.31e-06 M | <1 1e-6 cm/s | < 1 µg/mL | 8.61e-07 M | 8.94e-07 M | > 2.9e-05 M | > 2.9e-05 M | > 30 min | 
CCCN1C(CC2CCCCC2)=NS(=O)(=O)c2cc(NC(=O)c3cccs3)ccc21 [NCGC00532404] | 1.51e-06 M | 9.55e-07 M | 3.55e-07 M | 1.51e-06 M | 1.53e-06 M |  | < 1 µg/mL | 9.66e-07 M | 3.56e-07 M | > 2.9e-05 M | 1.5e-06 M | 3.4 min | Papp ([7]; PAMPA): < 5000 nm/s
CCCN1C(CC(C)C)=NS(=O)(=O)c2cc(NC(=O)C3CCCC3)ccc21 [NCGC00521158] | 5.25e-06 M | 4.17e-06 M | 2.69e-06 M | 2.14e-06 M | 5.25e-06 M | 726 1e-6 cm/s | < 1 µg/mL | 4.15e-06 M | 2.72e-06 M | 1.17e-05 M | 2.16e-06 M | 4.8 min | AC50 [5, 12]: 1.17e-05 M
CN1C(c2ccccc2)=NS(=O)(=O)c2cc(NC(=O)c3ccc(F)cc3)ccc21 [NCGC00651719] |  |  |  |  | > 2.9e-05 M | 3.25 1e-6 cm/s | < 1 µg/mL | > 2.9e-05 M | > 2.9e-05 M | > 2.9e-05 M | > 2.9e-05 M | > 30 min | 
